Source: ChEMBL document CHEMBL5120792, “Nyuzenamide C, an Antiangiogenic Epoxy Cinnamic Acid-Containing Bicyclic Peptide from a Riverine Streptomyces sp” (J Nat Prod, 2022)

Key:
HUVEC = assay: Antiangiogenic activity in HUVEC assessed as inhibition of VEGF-induced capillary tube formation incubated for 6 hrs by capillary tube formation assay; assay type: functional, cell-based; settings: Homo sapiens
Hepa1c1c7 = assay: Activation of QR in mouse Hepa1c1c7 cells assessed as increase in QR activity at 20 uM incubated for 24 hrs by NADPH-dependent menadiol-mediated reduction of MTT based assay relative to control; assay type: cell-based; settings: filed as activator

Structure (SMILES)	IC50 (HUVEC) [µM]	fold change (FC) (Hepa1c1c7)
CCN(CC)CCNC(=O)c1c(C)[nH]c(/C=C2\C(=O)Nc3ccc(F)cc32)c1C [SUNITINIB]	2.1	–
CC(C)C[C@H]1NC(=O)[C@@H]2CCCN2C(=O)[C@H]([C@@H](O)c2ccccc2)NC(=O)CNC(=O)[C@H](C(C)C)NC(=O)[C@H]2NC(=O)[C@@H](NC(=O)/C=C/c3ccccc3[C@H]3O[C@@H]3C)[C@@H](C)OC(=O)[C@@H](CC(N)=O)NC(=O)[C@H](NC(=O)[C@H](O)NC1=O)[C@@H](O)c1ccc(O)c(c1)Oc1ccc2cc1	8.9	1.8
